Earlier results, collected in patent publication US20050226974A1 (priority 2004, published 2005).

How the values were obtained:
yeasts = details: some yeasts
[1] = system: common food spoilage yeasts and moulds; details: most strains of common food spoilage yeasts and moulds

Question: With `C[C@@H]1C/C=C/C=C/C=C/C=C/[C@H](O[C@@H]2O[C@H](C)[C@@H](O)[C@H](N)[C@@H]2O)C[C@@H]2O[C@](O)(C[C@@H](O)C[C@H]3O[C@@H]3/C=C/C(=O)O1)C[C@H](O)[C@H]2C(=O)O` [Natamycin] as the compound, how does the “solubility dependence on pH” value read?
Answer: Its value is “most soluble at high or low pH”.

Question: And the maximum solubility (in water)?
Answer: The maximum solubility was “around 40 ppm”.

Question: What about the minimal inhibitory concentrations (yeasts) of the same compound?
Answer: Its minimal inhibitory concentrations is “less than 3 ppm”.

Question: What about the “concentrations inhibiting most strains” value [1] of the same compound?
Answer: The value was 1-15 ppm.
